Data reported in patent US6426229B1, “Chelating agent and detergent comprising the same” (Mitsubishi Rayon Co., Ltd., priority 1995, dated 2002).

test: Storage of aqueous solution or slurry for 60 days: HPLC analysis of components and appearance; assay type: physicochemical; details: keeping temperature 50° C.
Method: (§1) This aqueous solution was kept at 50° C. for 60 days, and, then, the components were analyzed by HPLC and, simultaneously, the appearance of the solution was observed.
as §1
This aqueous solution was kept at 50° C. for 60 days. Then, the components were analyzed by HPLC and, simultaneously, the appearance of the solution was observed.

SMILES	Appearance after kept for 60 days	Content of the compound of the formula [I] in aqueous solution after kept for 60 days [wt. %]
O=C([O-])CN(CC(=O)[O-])c1ccccc1C(=O)[O-].[Na+].[Na+].[Na+] [Example 102, trisodium salt of anthranilic acid-N,N-diacetic acid]	Light yellow transparent aqueous solution	37.8
O=C([O-])CC(NCCCNC(CC(=O)[O-])C(=O)[O-])C(=O)[O-].[Na+].[Na+].[Na+].[Na+] (centres unmarked) [compound 45, tetrasodium 1,3-propanediamine-N,N′-disuccinate]	Light yellow transparent aqueous solution	33.3
O=C([O-])CC(NCCCNC(CC(=O)[O-])C(=O)[O-])C(=O)[O-].[Cu+2].[Na+].[Na+] (centres unmarked) [Example 126, copper disodium 1,3-propanediamine-N,N′-disuccinate]	Dark blue transparent aqueous solution	36.4
CN(CC(=O)[O-])CC(=O)[O-].[Na+].[Na+] [compound 38, disodium N-methyliminodiacetate]	Brown aqueous solution	29.9
O=C([O-])CC(NCCNC(CC(=O)[O-])C(=O)[O-])C(=O)[O-].[Na+].[Na+].[Na+].[Na+] (centres unmarked) [compound 43, tetrasodium ethylenediamine-N,N′-disuccinate]	Light yellow transparent aqueous solution	35.7
O=C([O-])CN[C@@H](CC(=O)[O-])C(=O)[O-].[Na+].[Na+].[Na+] [compound 33, trisodium salt of (S)-aspartic acid-N-monoacetic acid]	Brown slurry	30.5
O=C([O-])CN(CC(=O)[O-])c1ccccc1C(=O)[O-].[Na+].[Na+].[Na+] [compound 39, trisodium salt of anthranilic acid-N,N-diacetic acid]	Brown aqueous solution	31.8
O=C([O-])C[C@H](NCCN[C@@H](CC(=O)[O-])C(=O)[O-])C(=O)[O-].[Na+].[Na+].[Na+].[Na+] [Example 113, tetrasodium (S,S)-ethylenediamine-N,N′-disuccinate]	Light yellow transparent aqueous solution	35.6
O=C([O-])C[C@H](NCCN[C@@H](CC(=O)[O-])C(=O)[O-])C(=O)[O-].[Fe+3].[NH4+] [compound 49, iron ammonium (S,S)-ethylenediamine-N,N′-disuccinate]	Blackish brown aqueous solution	29.9
C[C@@H](C(=O)[O-])N(CC(=O)[O-])CC(=O)[O-].[Na+].[Na+].[Na+] [compound 32, trisodium salt of (S)-α-alanine-N,N-diacetic acid]	Brown aqueous solution	31.8
CN(CC(=O)[O-])CC(=O)[O-].[Na+].[Na+] [Example 101, disodium N-methyliminodiacetate]	Light yellow transparent aqueous solution	36.6
O=C([O-])CC(NCCCNC(CC(=O)[O-])C(=O)[O-])C(=O)[O-].[Cu+2].[Na+].[Na+] (centres unmarked) [compound 50, copper disodium 1,3-propanediamine-N,N′-disuccinate]	Dark blue transparent aqueous solution	32.2
O=C([O-])CC(NCCNC(CC(=O)[O-])C(=O)[O-])C(=O)[O-].[Cu+2].[Na+].[Na+] (centres unmarked) [Example 124, copper disodium ethylenediamine-N,N′-disuccinate]	Dark blue transparent aqueous solution	36.3
O=C([O-])CN(CCS(=O)(=O)[O-])CC(=O)[O-].[Na+].[Na+].[Na+] [compound 37, trisodium salt of taurine-N,N-diacetic acid]	Brown aqueous solution	30.4
O=C([O-])CC(NCCNC(CC(=O)[O-])C(=O)[O-])C(=O)[O-].[Cu+2].[Na+].[Na+] (centres unmarked) [compound 48, copper disodium ethylenediamine-N,N′-disuccinate]	Dark blue transparent aqueous solution	31.4
O=C([O-])CCN[C@@H](CC(=O)[O-])C(=O)[O-].[Na+].[Na+].[Na+] [Example 87, trisodium salt of (S)-aspartic acid-N-monopropionic acid]	Light yellow transparent aqueous solution	37.8
C[C@@H](C(=O)[O-])N(CC(=O)[O-])CC(=O)[O-].[Na+].[Na+].[Na+] [Example 88, trisodium salt of (S)-α-alanine-N,N-diacetic acid]	Light yellow transparent aqueous solution	36.5

test: as above; assay type: physicochemical; details: keeping temperature 40° C.

SMILES	Appearance after kept for 60 days	Content of the compound of the formula [I] in aqueous solution after kept for 60 days [wt. %]
O=C([O-])CN(CC(=O)[O-])c1ccccc1C(=O)[O-].[Fe+3] [Example 110, iron salt of anthranilic acid-N,N-diacetic acid]	Reddish brown aqueous solution	49.3
O=C([O-])CN(CC(=O)[O-])c1ccccc1C(=O)[O-].[Fe+3] [Example 111, iron salt of anthranilic acid-N,N-diacetic acid]	Reddish brown aqueous solution	39.8

same assay, conditions: keeping temperature 65° C.

SMILES	Appearance after kept for 60 days	Content of the compound of the formula [I] in aqueous solution after kept for 60 days [wt. %]
O=C([O-])CC(NCCCNC(CC(=O)[O-])C(=O)[O-])C(=O)[O-].[Na+].[Na+].[Na+].[Na+] (centres unmarked) [Example 119, tetrasodium 1,3-propanediamine-N,N′-disuccinate]	Light yellow slurry	65.4
O=C([O-])CCN[C@@H](CC(=O)[O-])C(=O)[O-].[Na+].[Na+].[Na+] [Example 95, trisodium salt of (S)-aspartic acid-N-monopropionic acid]	Light yellow slurry	65.4
O=C([O-])C[C@@H](C(=O)[O-])N(CC(=O)[O-])CC(=O)[O-].[Na+].[Na+].[Na+].[Na+] [Example 94, tetrasodium salt of (S)-aspartic acid-N,N-diacetic acid]	Light yellow slurry	64.5

same assay, conditions: keeping temperature 70° C.

SMILES	Appearance after kept for 60 days	Content of the compound of the formula [I] in aqueous solution after kept for 60 days [wt. %]
O=C([O-])C[C@@H](C(=O)[O-])N(CC(=O)[O-])CC(=O)[O-].[Na+].[Na+].[Na+].[Na+] [Example 98, tetrasodium salt of (S)-aspartic acid-N,N-diacetic acid]	White slurry	78.5
O=C([O-])C[C@H](NCCCN[C@@H](CC(=O)[O-])C(=O)[O-])C(=O)[O-].[Na+].[Na+].[Na+].[Na+] [Example 120, tetrasodium (S,S)-1,3-propanediamine-N,N′-disuccinate]	White slurry	78.4
CN(CC(=O)[O-])CC(=O)[O-].[Na+].[Na+] [Example 109, disodium N-methyliminodiacetate]	White slurry	78.5
O=C([O-])CN[C@@H](CC(=O)[O-])C(=O)[O-].[Na+].[Na+].[Na+] [Example 97, trisodium salt of (S)-aspartic acid-N-monoacetic acid]	White slurry	76.8

same assay, conditions: keeping temperature 75° C.

SMILES	Appearance after kept for 60 days	Content of the compound of the formula [I] in aqueous solution after kept for 60 days [wt. %]
O=C([O-])CN[C@@H](CC(=O)[O-])C(=O)[O-].[Na+].[Na+].[Na+] [Example 89, trisodium salt of (S)-aspartic acid-N-monoacetic acid]	Colorless transparent aqueous solution	49.4
O=C([O-])CN(CC(=O)[O-])c1ccccc1C(=O)[O-].[Na+].[Na+].[Na+] [Example 105, trisodium salt of anthranilic acid-N,N-diacetic acid]	Colorless transparent aqueous solution	49.8
CN(CC(=O)[O-])CC(=O)[O-].[Na+].[Na+] [compound 41, disodium N-methyliminodiacetate, reference compound]	Light yellow transparent aqueous solution	29.6
O=C([O-])C[C@H](NCC(O)CN[C@@H](CC(=O)[O-])C(=O)[O-])C(=O)[O-].[Cu+2].[Na+].[Na+] [Example 128, copper disodium (S,S)-2-hydroxy-1,3-propanediamine-N,N′-disuccinate]	Dark blue transparent aqueous solution	47.9
O=C([O-])C[C@H](NCC(O)CN[C@@H](CC(=O)[O-])C(=O)[O-])C(=O)[O-].[Na+].[Na+].[Na+].[Na+] [Example 116, tetrasodium (S,S)-2-hydroxy-1,3-propanediamine-N,N′-disuccinate]	Colorless transparent aqueous solution	44.7
